13 compounds from patent US9694016B2 (Novartis AG, priority 2013, dated 2017) can be followed below.

The first test deals with b-Raf (V600E) (Homo sapiens (Human), UniProt P15056, V600E). As to conditions: read-out: b-Raf IC-50; AlphaScreen, 60 min pre-incubation, 3 hours reaction. In general terms: Bead proximity is the source of the signal in Alpha formats.
Sequence of b-Raf (V600E) (P15056 whole entry V600E): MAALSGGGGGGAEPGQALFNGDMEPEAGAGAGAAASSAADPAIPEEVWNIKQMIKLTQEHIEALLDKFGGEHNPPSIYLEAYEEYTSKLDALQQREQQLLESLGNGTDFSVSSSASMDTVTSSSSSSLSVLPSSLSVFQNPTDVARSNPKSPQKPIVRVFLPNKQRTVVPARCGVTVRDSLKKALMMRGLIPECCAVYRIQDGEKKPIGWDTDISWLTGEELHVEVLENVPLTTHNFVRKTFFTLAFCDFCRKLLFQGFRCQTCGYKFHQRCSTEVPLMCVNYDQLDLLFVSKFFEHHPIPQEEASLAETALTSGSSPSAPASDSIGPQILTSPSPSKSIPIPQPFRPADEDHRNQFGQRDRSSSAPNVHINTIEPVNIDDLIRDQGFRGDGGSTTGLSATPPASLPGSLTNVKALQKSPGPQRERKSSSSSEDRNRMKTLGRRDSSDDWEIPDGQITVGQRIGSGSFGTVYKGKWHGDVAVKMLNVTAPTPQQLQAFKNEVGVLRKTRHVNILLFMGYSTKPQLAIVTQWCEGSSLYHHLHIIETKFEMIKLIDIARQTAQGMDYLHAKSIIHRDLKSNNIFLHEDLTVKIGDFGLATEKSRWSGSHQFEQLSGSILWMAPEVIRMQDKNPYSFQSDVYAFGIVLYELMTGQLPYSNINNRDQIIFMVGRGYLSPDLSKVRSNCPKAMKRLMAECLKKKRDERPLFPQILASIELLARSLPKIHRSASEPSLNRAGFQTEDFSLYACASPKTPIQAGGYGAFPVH
Turning to `CCOc1nnc(-c2cc(NC(=O)c3cccc(C(F)(F)F)c3)cnc2C)cc1N1CCOCC1` [Example 609, N-(5-(6-ethoxy-5-morpholinopyridazin-3-yl)-6-methylpyridin-3-yl)-3-(trifluoromethyl)benzamide], the IC50 came to 0.9 nM. Still for that read-out and setting: next, `Cc1ccc(NC(=O)c2cccc(C(F)F)c2)cc1-c1cc(N2CCOCC2)c(=O)n(C)n1` [Example 655, 3-(difluoromethyl)-N-(4-methyl-3-(1-methyl-5-morpholino-6-oxo-1,6-dihydropyridazin-3-yl)phenyl)benzamide]: 2.2 nM.

`CCOc1nnc(-c2cc(NC(=O)c3ccnc(C4(C#N)CC4)c3)ccc2C)cc1N1CCOCC1` [Example 568, 2-(1-cyanocyclopropyl)-N-(3-(6-ethoxy-5-morpholinopyridazin-3-yl)-4-methylphenyl)isonicotinamide]: the IC50 was 0.7 nM. For the compound `Cc1ccc(NC(=O)c2cccc(C(F)(F)F)c2)cc1-c1nc2c(c(N3CCOCC3)n1)CNCC2` [Example 835, N-(4-methyl-3-(4-morpholino-5,6,7,8-tetrahydropyrido[4,3-d]pyrimidin-2-yl)phenyl)-3-(trifluoromethyl)benzamide], the IC50 is 2.1 nM.

The test is the same for the next values; noted with them: read-out: b-Raf IC-50; AlphaScreen, 60 min pre-incubation, reaction 3 hours at room temperature.
For the compound `Cc1ncc(NC(=O)c2ccnc(C(C)(F)F)c2)cc1-c1cc(NCCO)nc(N2CCOC[C@H]2C)c1` [Example 1139, (R)-2-(1,1-difluoroethyl)-N-(2′-((2-hydroxyethyl)amino)-2-methyl-6′-(3-methylmorpholino)-[3,4′-bipyridin]-5-yl)isonicotinamide], the IC50 is 14.3 nM. For `Cc1ncc(NC(=O)c2ccnc(C3CC3)c2)cc1-c1cnc(OC2CCOCC2)c(N2CCOCC2)c1` [Example 941, 2-cyclopropyl-N-(2-methyl-5′-morpholino-6′-((tetrahydro-2H-pyran-4-yl)oxy)-[3,3′-bipyridin]-5-yl)isonicotinamide], the IC50 came to 2.28 nM. The same measure, in the same setting: next, `Cc1ccc(NC(=O)c2ccnc(C(F)(F)F)c2)cc1-c1cc(N2CCOCC2)c(S(C)(=O)=O)nn1` [Example 930]: 1.03 nM; `Cc1ccc(NC(=O)c2ccnc(S(C)(=O)=O)c2)cc1-c1cc(N2CCOCC2)c2nccn2c1` [Example 851]: 0.9 nM.

Still in this test, the particulars now being: read-out: b-Raf IC-50; Table 2; AlphaScreen, 3 hours reaction.
Take `COc1ccc(C(=O)Nc2cnc(Cl)c(-c3cc(N4CCOCC4)c(=O)n(C)c3)c2)cc1C(F)(F)F` [Example 408, N-(2-chloro-1′-methyl-5′-morpholino-6′-oxo-1′,6′-dihydro-[3,3-bipyridin]-5-yl)-4-methoxy-3-(trifluoromethyl)benzamide]: the IC50 was 6.8 nM. Still for that read-out and setting: next, `Cn1cc(-c2cc(C(=O)Nc3cccc(C(C)(C)O)c3)cnc2Cl)cc(N2CCOCC2)c1=O` [Example 424, 2-chloro-N-(3-(2-hydroxypropan-2-yl)phenyl)-t-methyl-5′-morpholino-6′-oxo-1′,6′-dihydro-[3,3′-bipyridine]-5-carboxamide]: 50.4 nM; `CCOc1ncc(-c2cc(NC(=O)c3cc(C(F)(F)F)c(=O)n(CC)c3)cnc2C)cc1N1CCOCC1` [Example 241, N-(6′-ethoxy-2-methyl-5′-morpholino-[3,3′-bipyridin]-5-yl)-1-ethyl-6-oxo-5-(trifluoromethyl)-1,6-dihydropyridine-3-carboxamide]: 5.7 nM.

Regarding `CCOc1cc(C(=O)Nc2ccc(C)c(-c3cc(N4CCOCC4)c(=O)n(C)c3)c2)ccc1F` [Example 344, 3-ethoxy-4-fluoro-N-(4-methyl-3-(1-methyl-5-morpholino-6-oxo-1,6-dihydropyridin-3-yl)phenyl)benzamide], the IC50 stood at 3.1 nM. As for `Cc1ncc(NC(=O)c2cc(C(F)(F)F)nn2C)cc1-c1cc(N2CCOCC2)c(=O)n(C)c1` [Example 382, N-(1′,2-dimethyl-5′-morpholino-6′-oxo-1′,6′-dihydro-[3,3′-bipyridin]-5-yl)-1-methyl-3-(trifluoromethyl)-1H-pyrazole-5-carboxamide], the IC50 turned out to be 900 nM.
